Source: patent US10227336B2, “Pyrazole orexin receptor antagonists” (MERCK SHARP & DOHME CORP., priority 2014, dated 2019)
pIC50: −log10 of the molar value.

Key:
human orexin-2 receptor = human orexin-2 receptor (Homo sapiens (Human), UniProt O43614); assay: FLIPR Ca2+ Flux Assay, hOX2R; type: cell-based; settings: CHO cells expressing the human orexin-2 receptor; agonist 70 pM Ala-6,12 orexin-A
Method: The utility of the compounds in accordance with the present invention as orexin receptor OX1R and/or OX2R antagonists may be readily determined without undue experimentation by methodology well known in the art, including the “FLIPR Ca^2+ Flux Assay” (Okumura et al., Biochem. Biophys. Res. Comm. 280:976-981, 2001). In a typical experiment the OX1 and OX2 receptor antagonistic activity of the compounds of the present invention was determined in accordance with the following experimental method. For intracellular calcium measurements, Chinese hamster ovary (CHO) cells expressing the rat orexin-1 receptor or the human orexin-2 receptor, are grown in Iscove's modified DMEM containing 2 mM L-glutamine, […], 1% hypoxanthine-thymidine supplement, 100 U/ml penicillin, 100 μg/ml streptomycin and 10% heat-inactivated fetal calf serum (FCS). The cells are seeded at 20,000 cells/well into Becton-Dickinson black 384-well clear bottom sterile plates coated with poly-D-lysine. All reagents were from GIBCO-Invitrogen Corp. The seeded plates are incubated overnight at 37° C. and 5% CO2. Ala-6,12 human orexin-A as the agonist is prepared as a 1 mM stock solution in 1% bovine serum albumin (BSA) and diluted in assay buffer (HBSS containing 20 mM HEPES, 0.1% BSA and 2.5 mM probenecid, pH7.4) for use in the assay at a final concentration of 70 pM. Test compounds are prepared as 10 mM stock solution in DMSO, then diluted in 384-well plates, first in DMSO, then assay buffer. On the day of the assay, cells are washed 3 times with 100 μl assay buffer and then incubated for 60 min (37° C., 5% CO2) in 60 μl assay buffer containing 1 μM Fluo-4AM ester, 0.02% pluronic acid, and 1% BSA. The dye loading solution is then aspirated and cells are washed 3 times with 100 μl assay buffer. 30 μl of that same buffer is left in each well. Within the Fluorescent Imaging Plate Reader (FLIPR, Molecular Devices), test compounds are added to the plate in a volume of 25 μl, incubated for 5 min and finally 25 μl of agonist is added. Fluorescence is measured for each well at 1 second intervals for 5 minutes and the height of each fluorescence peak is compared to the height of the fluorescence peak induced by 70 pM Ala-6,12 orexin-A with buffer in place of antagonist. For each antagonist, IC50 value (the concentration of compound needed to inhibit 50% of the agonist response) is determined. Alternatively, compound potency can be assessed by a radioligand binding assay (described in Bergman et. al. Bioorg. Med. Chem. Lett. 2008, 18, 1425-1430) in which the inhibition constant (Ki) is determined in membranes prepared from CHO cells expressing either the OX1 or OX2 receptor. The intrinsic orexin receptor antagonist activity of a compound which may be used in the present invention may be determined by these assays.

hOX1R = hOX1R (Homo sapiens, UniProt O43613); assay: FLIPR Ca2+ Flux Assay, hOX1R; type: cell-based; settings: CHO cells expressing orexin-1 receptor (head: hOX1R; method: rat); agonist 70 pM Ala-6,12 orexin-A
Method: The utility of the compounds in accordance with the present invention as orexin receptor OX1R and/or OX2R antagonists may be readily determined without undue experimentation by methodology well known in the art, including the “FLIPR Ca^2+ Flux Assay” (Okumura et al., Biochem. Biophys. Res. Comm. 280:976-981, 2001). In a typical experiment the OX1 and OX2 receptor antagonistic activity of the compounds of the present invention was determined in accordance with the following experimental method. […] The cells are seeded at 20,000 cells/well into Becton-Dickinson black 384-well clear bottom sterile plates coated with poly-D-lysine. All reagents were from GIBCO-Invitrogen Corp. The seeded plates are incubated overnight at 37° C. and 5% CO2. Ala-6,12 human orexin-A as the agonist is prepared as a 1 mM stock solution in 1% bovine serum albumin (BSA) and diluted in assay buffer (HBSS containing 20 mM HEPES, 0.1% BSA and 2.5 mM probenecid, pH7.4) for use in the assay at a final concentration of 70 pM. Test compounds are prepared as 10 mM stock solution in DMSO, then diluted in 384-well plates, first in DMSO, then assay buffer. On the day of the assay, cells are washed 3 times with 100 μl assay buffer and then incubated for 60 min (37° C., 5% CO2) in 60 μl assay buffer containing 1 μM Fluo-4AM ester, 0.02% pluronic acid, and 1% BSA. The dye loading solution is then aspirated and cells are washed 3 times with 100 μl assay buffer. 30 μl of that same buffer is left in each well. Within the Fluorescent Imaging Plate Reader (FLIPR, Molecular Devices), test compounds are added to the plate in a volume of 25 μl, incubated for 5 min and finally 25 μl of agonist is added. Fluorescence is measured for each well at 1 second intervals for 5 minutes and the height of each fluorescence peak is compared to the height of the fluorescence peak induced by 70 pM Ala-6,12 orexin-A with buffer in place of antagonist. For each antagonist, IC50 value (the concentration of compound needed to inhibit 50% of the agonist response) is determined. Alternatively, compound potency can be assessed by a radioligand binding assay (described in Bergman et. al. Bioorg. Med. Chem. Lett. 2008, 18, 1425-1430) in which the inhibition constant (Ki) is determined in membranes prepared from CHO cells expressing either the OX1 or OX2 receptor. The intrinsic orexin receptor antagonist activity of a compound which may be used in the present invention may be determined by these assays.

Chain of human orexin-2 receptor (O43614 whole entry): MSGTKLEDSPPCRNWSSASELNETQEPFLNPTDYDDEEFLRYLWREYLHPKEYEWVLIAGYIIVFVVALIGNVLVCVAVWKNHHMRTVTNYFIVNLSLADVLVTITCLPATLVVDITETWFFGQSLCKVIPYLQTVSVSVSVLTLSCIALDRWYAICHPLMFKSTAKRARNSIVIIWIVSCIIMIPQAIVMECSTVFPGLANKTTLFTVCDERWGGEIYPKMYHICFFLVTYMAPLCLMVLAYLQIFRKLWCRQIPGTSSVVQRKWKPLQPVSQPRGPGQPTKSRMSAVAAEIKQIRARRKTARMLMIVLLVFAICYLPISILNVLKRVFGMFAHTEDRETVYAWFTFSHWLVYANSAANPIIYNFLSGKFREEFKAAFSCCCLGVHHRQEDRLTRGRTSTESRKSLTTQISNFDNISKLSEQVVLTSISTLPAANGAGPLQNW

| SMILES | pIC50 (human orexin-2 receptor) | pIC50 (hOX1R) |
| --- | --- | --- |
| CCn1cc([C@@H]2CC[C@@H](C)N(C(=O)c3ccccc3-n3nccn3)C2)cn1 [Example 1, (2R,5S)-5-(1-Ethyl-1H-pyrazol-4-yl)-2-methyl-1-{[2-(2H-1,2,3-triazol-2-yl)phenyl]carbonyl}piperidine] | 6.86 | < 5.00 |
| CC(C)n1cc([C@@H]2CC[C@@H](C)N(C(=O)c3ccccc3-n3nccn3)C2)cn1 [Example 2, (2R,5S)-2-methyl-5-[1-(1-methylethyl)-1H-pyrazol-4-yl]-1-1{[2-(2H-1,2,3-triazol-2-yl)phenyl]carbonyl}piperidine] | 7.47 | 5.47 |
| C[C@@H]1CC[C@@H](c2cnn(CC3CC3)c2)CN1C(=O)c1ccccc1-n1nccn1 [Example 3, (2R,5S)-5-[1-(cyclopropylmethyl)-1H-pyrazol-4-yl]-2-methyl-1-{[2-(2H-1,2,3-triazol-2-yl)phenyl]carbonyl}piperidine] | 6.91 | 5.11 |
| C[C@@H]1CC[C@@H](c2cnn(C3CCCC3)c2)CN1C(=O)c1ccccc1-n1nccn1 [Example 4, (2R,5S)-5-(1-cyclopentyl-1H-pyrazol-4-yl)-2-methyl-1-{[2-(2H-1,2,3-triazol-2-yl)phenyl]carbonyl}piperidine] | 7.41 | 5.84 |
| C[C@@H]1CC[C@@H](c2cnn(CC(F)(F)F)c2)CN1C(=O)c1ccccc1-n1nccn1 [Example 5, (2R,5S)-2-methyl-1-{[2-(2H-1,2,3-triazol-2-yl)phenyl]carbonyl}-5-[1-(2,2,2-trifluoroethyl)-1H-pyrazol-4-yl]piperidine] | 7.12 | < 5.00 |
| C[C@@H]1CC[C@@H](c2cnn(CC(F)F)c2)CN1C(=O)c1ccccc1-n1nccn1 [Example 6, (2R,5S)-5-[1-(2,2-difluoroethyl)-1H-pyrazol-4-yl]-2-methyl-1-{[2-(2H-1,2,3-triazol-2-yl)phenyl]carbonyl}piperidine] | 6.74 | < 5.00 |
| COC(=O)C(C)(C)n1cc([C@@H]2CC[C@@H](C)N(C(=O)c3ccccc3-n3nccn3)C2)cn1 [Example 7, methyl 2-methyl-2-{4-[(3S,6R)-6-methyl-1-{[2-(2H-1,2,3-triazol-2-yl)phenyl]carbonyl}piperidin-3-yl]-1H-pyrazol-1-yl}propanoate] | 7.34 | 5.52 |
| C[C@@H]1CC[C@@H](c2cnn(C3CCC3)c2)CN1C(=O)c1ccccc1-n1nccn1 [Example 8, (2R,5S)-5-(1-cyclobutyl-1H-pyrazol-4-yl)-2-methyl-1-{[2-(2H-1,2,3-triazol-2-yl)phenyl]carbonyl}piperidine] | 7.31 | 5.46 |
| C[C@@H]1CC[C@@H](c2cnn(C3CCOC3)c2)CN1C(=O)c1ccccc1-n1nccn1 (stereo partly drawn) [Example 9, (2R,5S)-2-methyl-5-[1-(tetrahydrofuran-3-yl)-1H-pyrazol-4-yl]-1-{[2-(2H-1,2,3-triazol-2-yl)phenyl]carbonyl}piperidine] | 6.22 | < 5.00 |
| C[C@@H]1CC[C@@H](c2cnn(CC(C)(C)O)c2)CN1C(=O)c1ccccc1-n1nccn1 [Example 10, 2-Methyl-1-{4-[(3S,6R)-6-methyl-1-{[2-(2H-1,2,3-triazol-2-yl)phenyl]carbonyl}piperidin-3-yl]-1H-pyrazol-1-yl}propan-2-ol] | 6.71 | < 5.00 |
| C[C@@H]1CC[C@@H](c2cnn(C3CC3)c2)CN1C(=O)c1ccccc1-n1nccn1 [Example 11, (2R,5S)-5-(1-Cyclopropyl-1H-pyrazol-4-yl)-2-methyl-1-{[2-(2H-1,2,3-triazol-2-yl)phenyl]carbonyl}piperidine] | 7.25 | < 5.00 |
| CC(C)n1cc([C@@H]2CC[C@@H](C)N(C(=O)c3ccsc3-n3nccn3)C2)cn1 [Example 12, (2R,5S)-2-Methyl-5-[1-(1-methylethyl)-1H-pyrazol-4-yl]-1-{[2-(2H-1,2,3-triazol-2-yl)thiophen-3-yl]carbonyl}piperidine] | 6.52 | < 5.00 |
| CC(C)n1cc([C@@H]2CC[C@@H](C)N(C(=O)c3ccsc3-c3ncccn3)C2)cn1 [Example 13, 2[3-({(2R,5S)-2-methy1-5-[1-(1-methylethyl)-1H-pyrazol-4-yl]piperidin-1-yl}carbonyl)thiophen-2-yl]pyrimidine] | 6.81 | < 5.00 |
| CC(C)n1cc([C@@H]2CC[C@@H](C)N(C(=O)c3cscc3-n3nccn3)C2)cn1 [Example 14, (2R,5S)-2-methyl-5-[1-(1-methylethyl)-1H-pyrazol-4-yl]-1-{[4-(2H-1,2,3-triazol-2-yl)thiophen-3-yl]carbonyl}piperidine] | 6.37 | < 5.00 |
| CC(C)n1cc([C@@H]2CC[C@@H](C)N(C(=O)c3ccc(F)cc3-n3nccn3)C2)cn1 [Example 15, (2R,5S)-1-{[4-fluoro-2-(2H-1,2,3-triazol-2-yl)phenyl]carbonyl}-2-methyl-5-[1-(1-methylethyl)-1H-pyrazol-4-yl]piperidine] | 6.95 | < 5.00 |
| CC(C)n1cc([C@@H]2CC[C@@H](C)N(C(=O)c3ccccc3-n3ncnn3)C2)cn1 [Example 16, (2R,5S)-2-methyl-5-[1-(1-methylethyl)-1H-pyrazol-4-yl]-1-{[2-(2H-tetrazol-2-yl)phenyl]carbonyl}piperidine] | 6.59 | < 5.00 |
